Reference: ChEMBL document CHEMBL2311359, “Antiproliferative and apoptotic effects of the oxidative dimerization product of methyl caffeate on human breast cancer cells” (Bioorg Med Chem Lett, 2013)
One block for each compound: values may come before it. The source made the active and inactive calls. No cut-off for these calls is given here.

Key:
[1] = Drug degradation in culture medium assessed as dehydration; assay type: physicochemical
[2] = tested on: MCF7; assay: Growth inhibition of human MCF7 cells at 10 uM after 48 hrs; assay type: functional
[3] = tested on: MCF7; assay: Growth inhibition of human MCF7 cells after 48 hrs in presence of fetal calf serum; assay type: functional, cell-based; settings: MCF7, 48 h
[4] = tested on: MCF7; assay: Induction of apoptosis in human MCF7 cells at 10 uM after 48 hrs by Hoechst-staining method in presence of fetal calf serum; assay type: functional
[5] = tested on: MDA-MB-231; assay: Induction of apoptosis in human MDA-MB-231 cells at 10 uM after 48 hrs by Hoechst-staining method in presence of fetal calf serum; assay type: functional
[6] = tested on: MDA-MB-231; assay: Induction of apoptosis in human MDA-MB-231 cells assessed as pyknosis at 1 to 10 uM after 48 hrs by Hoechst-staining method in presence of fetal calf serum; assay type: functional, cell-based
[7] = tested on: MCF7; assay: Induction of apoptosis in human MCF7 cells after 48 hrs by Hoechst-staining method in presence of fetal calf serum; assay type: functional, cell-based
[8] = tested on: MCF7; assay: Induction of cell cycle arrest in human MCF7 cells assessed as G0/G1 phase cells at 5 uM after 48 hrs by flow cytometric analysis (reference value: 35.6%); assay type: functional
[9] = tested on: MDA-MB-231; assay: Induction of cell cycle arrest in human MDA-MB-231 cells assessed as subG0 phase cells at 5 uM after 48 hrs by propidium iodide-staining method in absence of fetal calf serum relative to control; assay type: functional
[10] = tested on: MDA-MB-231; assay: Induction of cell cycle arrest in human MDA-MB-231 cells assessed as subG0 phase cells at 5 uM after 48 hrs by propidium iodide-staining method in presence of fetal calf serum relative to control; assay type: functional
[11] = tested on: MCF7; assay: Induction of cell cycle arrest in human MCF7 cells assessed as subG0 phase cells at 5 uM after 48 hrs by propidium iodide-staining method in presence of fetal calf serum relative to control; assay type: functional
[12] = tested on: MDA-MB-231; assay: Induction of cell cycle arrest in human MDA-MB-231 cells assessed as decrease in G2/M phase cells at 5 uM after 48 hrs by flow cytometric analysis relative to control; assay type: functional, cell-based
[13] = tested on: MCF7; assay: Induction of cell cycle arrest in human MCF7 cells assessed as subG0 phase cells at 5 uM after 48 hrs by propidium iodide-staining method in absence of fetal calf serum relative to control; assay type: functional
[14] = tested on: MCF7; assay: Induction of apoptosis in human MCF7 cells after 48 hrs by Hoechst-staining method in absence of fetal calf serum; assay type: functional, cell-based
[15] = tested on: MDA-MB-231; assay: Induction of apoptosis in human MDA-MB-231 cells after 48 hrs by Hoechst-staining method in absence of fetal calf serum; assay type: functional, cell-based
[16] = tested on: MCF7; assay: Induction of cell cycle arrest in human MCF7 cells assessed as S/G2 phase cells at 5 uM after 48 hrs by flow cytometric analysis (reference value: 17.8%); assay type: functional
[17] = tested on: MCF7; assay: Induction of apoptosis in human MCF7 cells assessed as apoptotic bubbling at 1 to 10 uM after 48 hrs by Hoechst-staining method in presence of fetal calf serum; assay type: functional, cell-based
[18] = tested on: MCF7; assay: Induction of apoptosis in human MCF7 cells assessed as pyknosis at 1 to 10 uM after 48 hrs by Hoechst-staining method in absence of fetal calf serum; assay type: functional, cell-based
[19] = tested on: MCF7; assay: Induction of apoptosis in human MCF7 cells assessed as apoptotic bubbling at 1 to 10 uM after 48 hrs by Hoechst-staining method in absence of fetal calf serum; assay type: functional, cell-based
[20] = tested on: MDA-MB-231; assay: Induction of apoptosis in human MDA-MB-231 cells assessed as pyknosis at 1 to 10 uM after 48 hrs by Hoechst-staining method in absence of fetal calf serum; assay type: functional, cell-based
[21] = tested on: MDA-MB-231; assay: Induction of apoptosis in human MDA-MB-231 cells assessed as apoptotic bubbling at 1 to 10 uM after 48 hrs by Hoechst-staining method in presence of fetal calf serum; assay type: functional, cell-based
[22] = tested on: MCF7; assay: Induction of cell cycle arrest in human MCF7 cells assessed as S phase cells at 5 uM after 48 hrs by flow cytometric analysis (reference value: 46.6%); assay type: functional
[23] = tested on: MDA-MB-231; assay: Growth inhibition of human MDA-MB-231 cells after 48 hrs in absence of fetal calf serum; assay type: functional, cell-based; settings: MDA-MB-231, 48 h
[24] = tested on: MDA-MB-231; assay: Induction of cell cycle arrest in human MDA-MB-231 cells assessed as decrease in G0/G1 phase cells at 5 uM after 48 hrs by flow cytometric analysis relative to control; assay type: functional, cell-based
[25] = tested on: MDA-MB-231; assay: Growth inhibition of human MDA-MB-231 cells after 48 hrs in presence of fetal calf serum; assay type: functional, cell-based; settings: MDA-MB-231, 48 h
[26] = tested on: MDA-MB-231; assay: Induction of apoptosis in human MDA-MB-231 cells assessed as apoptotic bubbling at 1 to 10 uM after 48 hrs by Hoechst-staining method in absence of fetal calf serum; assay type: functional, cell-based
[27] = tested on: MCF7; assay: Growth inhibition of human MCF7 cells after 48 hrs in absence of fetal calf serum; assay type: functional, cell-based; settings: MCF7, 48 h
[28] = tested on: MDA-MB-231; assay: Induction of apoptosis in human MDA-MB-231 cells after 48 hrs by Hoechst-staining method in presence of fetal calf serum; assay type: functional, cell-based
[29] = tested on: MDA-MB-231; assay: Induction of cell cycle arrest in human MDA-MB-231 cells assessed as S phase cells at 5 uM after 48 hrs by flow cytometric analysis (reference value: 40.4%); assay type: functional
[30] = tested on: MCF7; assay: Induction of apoptosis in human MCF7 cells assessed as pyknosis at 1 to 10 uM after 48 hrs by Hoechst-staining method in presence of fetal calf serum; assay type: functional, cell-based
[31] = Drug degradation in culture medium assessed as decarboxylation; assay type: physicochemical
[32] = tested on: T47D; assay: Antiproliferative activity against human T47D cells after 5 days by MTT assay; assay type: functional, cell-based; settings: 120 h

SMILES: COC(=O)C1C(O)c2cc(OC)c(O)c(OC)c2[C@@H](c2cc(OC)c(O)c(OC)c2)[C@@H]1C(=O)OC (stereo partly drawn)
Stability [1]: Unstable | growth inhibition (GI) [2]: Active

SMILES: CCOC(=O)C1=Cc2cc(O)c(O)cc2[C@@H](c2ccc(O)cc2)[C@@H]1C(=O)O (relative stereo)
growth inhibition (GI) [2]: Active

SMILES: COC(=O)C1=Cc2cc(OC)c(O)cc2[C@@H](c2ccc(O)c(OC)c2)[C@@H]1C(=O)OC
growth inhibition (GI) [2]: inactive

SMILES: CCOC(=O)C1=Cc2cc(O)c(O)cc2[C@@H](c2ccc(O)cc2)[C@@H]1C(=O)OCC (relative stereo)
growth inhibition (GI) [2]: Active

SMILES: COC(=O)C1=Cc2cc(OC)c(O)c(C)c2[C@@H](c2cc(C)c(O)c(OC)c2)[C@@H]1C(=O)OC
growth inhibition (GI) [2]: inactive

More lines, main results first:

IC50 [3]: 1000 nM | IC50 [23]: 5000 nM | IC50 [25]: 5000 nM | IC50 [27]: 1000 nM
SMILES: COC(=O)C1=Cc2cc(O)c(O)cc2[C@@H](c2ccc(O)c(O)c2)[C@@H]1C(=O)OC
Activity [4]: 25% | Activity [5]: 25% | Activity [6]: Active | Activity [7]: Dose-dependent effect | Activity [8]: 29.4% | Activity [9]: 20% | Activity [10]: 20% | Activity [11]: 20% | Activity [12]: Active | Activity [13]: 20% | inhibition of growth at 10 µM ([2]; MCF7, 48 h, read-out: GI): 82% | Activity [14]: Dose-dependent effect | Activity [15]: Dose-dependent effect | Activity [16]: 17% | Activity [17]: Active | Activity [18]: Active | Activity [19]: Active | Activity [20]: Active | Activity [21]: Active | Activity [22]: 34.7% | Activity [24]: Active | Activity [26]: Active | Activity [28]: Dose-dependent effect | Activity [29]: 56.1% | Activity [30]: Active

Stability [31]: Unstable
SMILES: O=C(O)C1=Cc2cc(O)c(O)cc2[C@@H](c2ccc(O)cc2)[C@@H]1C(=O)O (relative stereo)
growth inhibition (GI) [2]: Active

IC50 [32]: 2 nM
SMILES: O=C(O)/C=C/c1ccc(O)c(O)c1 [CAFFEIC ACID]
